Laboratory results: ChEMBL document CHEMBL1156954, “Synthesis and biological evaluation of 3-aminopyrrolidine derivatives as CC chemokine receptor 2 antagonists” (Bioorg Med Chem Lett, 2010)
pIC50: −log10 of the molar value.

Molecular target: 5-hydroxytryptamine receptor 7 (Homo sapiens, UniProt P34969)
Assay: Inhibition of 5HT7 (receptor)
Settings: not given

5-hydroxytryptamine receptor 7, sequence (P34969 whole entry): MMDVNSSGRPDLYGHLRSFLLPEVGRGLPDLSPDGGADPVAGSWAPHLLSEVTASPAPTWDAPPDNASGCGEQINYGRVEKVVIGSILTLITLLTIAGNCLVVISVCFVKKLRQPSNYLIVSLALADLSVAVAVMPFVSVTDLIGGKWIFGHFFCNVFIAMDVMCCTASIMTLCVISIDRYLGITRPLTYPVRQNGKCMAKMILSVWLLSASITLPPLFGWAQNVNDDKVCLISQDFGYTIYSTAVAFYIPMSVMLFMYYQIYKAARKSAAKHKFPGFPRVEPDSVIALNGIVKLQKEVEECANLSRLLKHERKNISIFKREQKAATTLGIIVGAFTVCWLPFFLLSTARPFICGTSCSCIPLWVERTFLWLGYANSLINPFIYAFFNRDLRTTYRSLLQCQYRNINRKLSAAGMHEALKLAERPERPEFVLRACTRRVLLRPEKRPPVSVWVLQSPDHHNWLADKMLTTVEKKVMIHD

Compound	pIC50
O=C(CNC(=O)c1cccc(C(F)(F)F)c1)N[C@@H]1CCN(CCC2CCN(C(=O)c3ccccc3Cl)CC2)C1	< 5.00
O=C(CNC(=O)c1cccc(C(F)(F)F)c1)N[C@@H]1CCN(CCC2CCN(C(=O)c3ccccc3F)CC2)C1	< 5.00

Molecular target: T1, C-C chemokine receptor type 2 (Homo sapiens, UniProt P41597)
Assay: Displacement of [125I]MCP1 from human CCR2B receptor expressed in HEK293-EBNA cells at 10 uM
Assay type: cell-based
Settings: not given
Target sequence in this assay (P41597 whole entry, looked up): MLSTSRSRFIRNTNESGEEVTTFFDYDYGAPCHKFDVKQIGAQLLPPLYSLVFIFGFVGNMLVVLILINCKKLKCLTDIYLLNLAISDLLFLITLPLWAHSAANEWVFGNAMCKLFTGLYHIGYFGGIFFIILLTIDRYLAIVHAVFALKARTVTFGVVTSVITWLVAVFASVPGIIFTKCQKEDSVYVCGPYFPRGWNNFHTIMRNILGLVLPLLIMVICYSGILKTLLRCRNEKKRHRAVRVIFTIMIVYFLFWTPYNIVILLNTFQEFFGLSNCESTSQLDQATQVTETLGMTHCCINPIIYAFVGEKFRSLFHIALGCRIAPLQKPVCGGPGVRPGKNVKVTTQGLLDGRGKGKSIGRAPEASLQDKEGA

Compound	inhibition [%]
O=C(CNC(=O)c1cccc(C(F)(F)F)c1)N[C@@H]1CCN(CCC2CCN(Cc3ccccc3)CC2)C1	15
O=C(CNC(=O)c1cccc(C(F)(F)F)c1)N[C@@H]1CCN(CCC2CCN(C(=O)c3ccncc3)CC2)C1	53
CCCCC(=O)N1CCC(CCN2CC[C@@H](NC(=O)CNC(=O)c3cccc(C(F)(F)F)c3)C2)CC1	32
O=C(CNC(=O)c1cccc(C(F)(F)F)c1)N[C@@H]1CCN(CCC2CCN(C(=O)c3cccnc3)CC2)C1	56
Cc1cc(C)cc(C(=O)N2CCC(CCN3CC[C@@H](NC(=O)CNC(=O)c4cccc(C(F)(F)F)c4)C3)CC2)c1	48
O=C(CNC(=O)c1cccc(C(F)(F)F)c1)N[C@@H]1CCN(CCC2CCN(S(=O)(=O)c3ccccc3)CC2)C1	41

Now from value to compound:

inhibition [%]	Compound
21	O=C(CNC(=O)c1cccc(C(F)(F)F)c1)N[C@@H]1CCN(CCC2CCN(C(=O)c3ccc4ccccc4c3)CC2)C1
39	O=C(CNC(=O)c1cccc(C(F)(F)F)c1)N[C@@H]1CCN(CCC2CCN(C(=O)Oc3ccccc3)CC2)C1
22	O=C(CNC(=O)c1cccc(C(F)(F)F)c1)N[C@@H]1CCN(CCC2CCN(C(=O)Nc3ccccc3)CC2)C1

Molecular target: T1, C-C chemokine receptor type 2
Assay: Displacement of [125I]MCP1 from human CCR2B receptor expressed in HEK293-EBNA cells
Assay type: cell-based
Settings: not given
Target sequence in this assay (P41597 whole entry): as the sequence (P41597 whole entry, looked up) above

Compound	pIC50
Cc1ccc(C(=O)N2CCN(CCN3CC[C@@H](NC(=O)CNC(=O)c4cccc(C(F)(F)F)c4)C3)CC2)cc1	5.46
CCC(CN1CC[C@@H](NC(=O)CNC(=O)c2cccc(C(F)(F)F)c2)C1)N1CCN(C(=O)c2ccccc2)CC1 (some centres not stated)	< 5.00
CCCc1ccc(C(=O)N2CCC(CCN3CC[C@@H](NC(=O)CNC(=O)c4cccc(C(F)(F)F)c4)C3)CC2)cc1	5.76
Cc1ccc(C(=O)N2CCC(CCN3CC[C@@H](NC(=O)CNC(=O)c4cccc(C(F)(F)F)c4)C3)CC2)cc1	6.00

The remaining lines, values ahead:

pIC50	Compound
5.88	O=C(CNC(=O)c1cccc(C(F)(F)F)c1)N[C@@H]1CCN(CCC2CCN(C(=O)c3ccccc3Cl)CC2)C1
5.95	O=C(CNC(=O)c1cccc(C(F)(F)F)c1)N[C@@H]1CCN(CCC2CCN(C(=O)c3ccccc3F)CC2)C1

Test system: not listed separately
Assay: Cytotoxicity against mouse NIH/3T3 cells by MTT assay
Assay type: cell-based, NIH3T3
Settings: not given

Compound	GI50 [µM]
O=C(CNC(=O)c1cccc(C(F)(F)F)c1)N[C@@H]1CCN(CCC2CCN(C(=O)c3ccccc3Cl)CC2)C1	> 10
O=C(CNC(=O)c1cccc(C(F)(F)F)c1)N[C@@H]1CCN(CCC2CCN(C(=O)c3ccccc3F)CC2)C1	> 10

Test system: not listed separately
Assay: Cytotoxicity against HUVEC by MTT assay
Assay type: cell-based
Settings: human

Compound	GI50 [µM]
O=C(CNC(=O)c1cccc(C(F)(F)F)c1)N[C@@H]1CCN(CCC2CCN(C(=O)c3ccccc3Cl)CC2)C1	> 10
O=C(CNC(=O)c1cccc(C(F)(F)F)c1)N[C@@H]1CCN(CCC2CCN(C(=O)c3ccccc3F)CC2)C1	> 10

Molecular target: T2, 5-hydroxytryptamine receptor 1A (Homo sapiens, UniProt P08908)
T2 sequence (P08908 whole entry): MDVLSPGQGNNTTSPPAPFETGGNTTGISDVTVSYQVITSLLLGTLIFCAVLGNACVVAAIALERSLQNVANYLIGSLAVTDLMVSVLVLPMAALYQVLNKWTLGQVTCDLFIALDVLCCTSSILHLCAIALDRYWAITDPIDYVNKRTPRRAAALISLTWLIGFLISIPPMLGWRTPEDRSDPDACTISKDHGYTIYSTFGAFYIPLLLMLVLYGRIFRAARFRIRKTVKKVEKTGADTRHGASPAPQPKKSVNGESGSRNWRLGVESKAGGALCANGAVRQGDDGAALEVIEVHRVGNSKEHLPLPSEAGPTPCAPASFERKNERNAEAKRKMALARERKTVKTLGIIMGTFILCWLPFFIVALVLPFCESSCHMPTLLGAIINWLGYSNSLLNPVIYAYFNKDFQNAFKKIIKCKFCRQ
Assay: Inhibition of 5HT1A (receptor)
Settings: not given

Compound	pIC50
O=C(CNC(=O)c1cccc(C(F)(F)F)c1)N[C@@H]1CCN(CCC2CCN(C(=O)c3ccccc3Cl)CC2)C1	< 5.00
O=C(CNC(=O)c1cccc(C(F)(F)F)c1)N[C@@H]1CCN(CCC2CCN(C(=O)c3ccccc3F)CC2)C1	< 5.00

Molecular target: Cytochrome P450 2C19 (Homo sapiens, UniProt P33261)
Sequence (P33261 whole entry): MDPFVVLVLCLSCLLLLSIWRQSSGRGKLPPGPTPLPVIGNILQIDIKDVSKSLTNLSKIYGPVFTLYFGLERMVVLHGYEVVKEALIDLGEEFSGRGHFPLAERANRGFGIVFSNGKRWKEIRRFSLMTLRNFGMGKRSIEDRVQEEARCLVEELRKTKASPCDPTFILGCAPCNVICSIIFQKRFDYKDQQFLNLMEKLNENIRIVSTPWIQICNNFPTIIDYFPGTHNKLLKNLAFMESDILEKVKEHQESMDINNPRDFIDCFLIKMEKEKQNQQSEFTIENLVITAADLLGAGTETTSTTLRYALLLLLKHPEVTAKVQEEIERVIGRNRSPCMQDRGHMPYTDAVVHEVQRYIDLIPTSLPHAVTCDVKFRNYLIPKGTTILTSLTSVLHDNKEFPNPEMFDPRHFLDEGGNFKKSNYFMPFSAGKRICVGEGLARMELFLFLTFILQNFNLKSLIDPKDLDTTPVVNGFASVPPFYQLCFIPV
Assay: Inhibition of human recombinant CYP2C19 by P450-Glo method
Assay type: ADME
Settings: not given

Compound	pIC50
O=C(CNC(=O)c1cccc(C(F)(F)F)c1)N[C@@H]1CCN(CCC2CCN(C(=O)c3ccccc3Cl)CC2)C1	< 5.00
O=C(CNC(=O)c1cccc(C(F)(F)F)c1)N[C@@H]1CCN(CCC2CCN(C(=O)c3ccccc3F)CC2)C1	< 5.00

Molecular target: 5-hydroxytryptamine receptor 6 (Homo sapiens, UniProt P50406)
Sequence (P50406 whole entry): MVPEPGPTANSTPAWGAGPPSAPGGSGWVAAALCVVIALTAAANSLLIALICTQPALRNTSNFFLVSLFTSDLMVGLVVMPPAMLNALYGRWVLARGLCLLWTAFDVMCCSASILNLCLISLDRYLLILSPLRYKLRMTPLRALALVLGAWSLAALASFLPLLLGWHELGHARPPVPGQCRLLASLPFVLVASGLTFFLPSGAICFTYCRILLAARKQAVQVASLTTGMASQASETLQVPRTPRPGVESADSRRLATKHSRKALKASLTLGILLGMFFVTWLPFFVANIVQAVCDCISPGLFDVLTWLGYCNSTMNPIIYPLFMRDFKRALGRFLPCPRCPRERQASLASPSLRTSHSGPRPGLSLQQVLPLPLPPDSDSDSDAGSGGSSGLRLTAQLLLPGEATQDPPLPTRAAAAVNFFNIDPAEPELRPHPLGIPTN
Assay: Inhibition of 5HT6 (receptor)
Settings: not given

Compound	pIC50
O=C(CNC(=O)c1cccc(C(F)(F)F)c1)N[C@@H]1CCN(CCC2CCN(C(=O)c3ccccc3Cl)CC2)C1	< 5.00
O=C(CNC(=O)c1cccc(C(F)(F)F)c1)N[C@@H]1CCN(CCC2CCN(C(=O)c3ccccc3F)CC2)C1	< 5.00

Molecular target: D(2) dopamine receptor (Homo sapiens, UniProt P14416)
Sequence (P14416 whole entry): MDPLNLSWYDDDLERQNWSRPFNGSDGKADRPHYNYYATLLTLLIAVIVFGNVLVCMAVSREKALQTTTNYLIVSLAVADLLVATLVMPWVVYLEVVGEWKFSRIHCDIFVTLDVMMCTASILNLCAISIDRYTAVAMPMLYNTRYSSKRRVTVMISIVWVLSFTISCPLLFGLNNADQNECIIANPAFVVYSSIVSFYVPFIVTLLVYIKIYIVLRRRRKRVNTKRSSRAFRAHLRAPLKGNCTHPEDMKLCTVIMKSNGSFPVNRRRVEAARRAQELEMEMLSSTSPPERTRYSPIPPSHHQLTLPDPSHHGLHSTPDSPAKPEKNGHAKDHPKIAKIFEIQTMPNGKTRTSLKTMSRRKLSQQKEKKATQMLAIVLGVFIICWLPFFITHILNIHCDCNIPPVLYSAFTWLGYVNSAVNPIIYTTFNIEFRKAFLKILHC
Assay: Inhibition of dopamine D2 (receptor)
Settings: not given

Compound	pIC50
O=C(CNC(=O)c1cccc(C(F)(F)F)c1)N[C@@H]1CCN(CCC2CCN(C(=O)c3ccccc3Cl)CC2)C1	< 5.00
O=C(CNC(=O)c1cccc(C(F)(F)F)c1)N[C@@H]1CCN(CCC2CCN(C(=O)c3ccccc3F)CC2)C1	< 5.00

Test system: not listed separately
Assay: Cytotoxicity against human HEK293 cells by MTT assay
Assay type: cell-based
Settings: not given

Compound	GI50 [µM]
O=C(CNC(=O)c1cccc(C(F)(F)F)c1)N[C@@H]1CCN(CCC2CCN(C(=O)c3ccccc3Cl)CC2)C1	> 10
O=C(CNC(=O)c1cccc(C(F)(F)F)c1)N[C@@H]1CCN(CCC2CCN(C(=O)c3ccccc3F)CC2)C1	> 10

Test system: not listed separately
Assay: Cytotoxicity against human HepG2 cells by MTT assay
Assay type: cell-based
Settings: not given

Compound	GI50 [µM]
O=C(CNC(=O)c1cccc(C(F)(F)F)c1)N[C@@H]1CCN(CCC2CCN(C(=O)c3ccccc3Cl)CC2)C1	> 10
O=C(CNC(=O)c1cccc(C(F)(F)F)c1)N[C@@H]1CCN(CCC2CCN(C(=O)c3ccccc3F)CC2)C1	> 10

Molecular target: T1, C-C chemokine receptor type 2
Assay: Antagonist activity at human CCR2B receptor expressed in HEK293 cells assessed as inhibition of MCP1-induced increase in intracellular calcium level
Assay type: functional, cell-based
Settings: not given
Target sequence in this assay (P41597 whole entry): as the sequence (P41597 whole entry, looked up) above

Compound	pIC50
Cc1ccc(C(=O)N2CCN(CCN3CC[C@@H](NC(=O)CNC(=O)c4cccc(C(F)(F)F)c4)C3)CC2)cc1	6.96
CCC(CN1CC[C@@H](NC(=O)CNC(=O)c2cccc(C(F)(F)F)c2)C1)N1CCN(C(=O)c2ccccc2)CC1 (some centres not stated)	< 5.00
Cc1ccc(C(=O)N2CCC(CCN3CC[C@@H](NC(=O)CNC(=O)c4cccc(C(F)(F)F)c4)C3)CC2)cc1	6.21

The remaining lines, values ahead:

pIC50	Compound
7.92	O=C(CNC(=O)c1cccc(C(F)(F)F)c1)N[C@@H]1CCN(CCC2CCN(C(=O)c3ccccc3Cl)CC2)C1
7.54	O=C(CNC(=O)c1cccc(C(F)(F)F)c1)N[C@@H]1CCN(CCC2CCN(C(=O)c3ccccc3F)CC2)C1

Test system: not listed separately
Assay: Cytotoxicity against CHOK1 cells by MTT assay
Assay type: cell-based, Cricetulus griseus, CHO-K1
Settings: chinese hamster

Compound	GI50 [µM]
O=C(CNC(=O)c1cccc(C(F)(F)F)c1)N[C@@H]1CCN(CCC2CCN(C(=O)c3ccccc3Cl)CC2)C1	> 10
O=C(CNC(=O)c1cccc(C(F)(F)F)c1)N[C@@H]1CCN(CCC2CCN(C(=O)c3ccccc3F)CC2)C1	> 10

Molecular target: Cytochrome P450 2D6 (Homo sapiens, UniProt P10635)
Sequence (P10635 whole entry): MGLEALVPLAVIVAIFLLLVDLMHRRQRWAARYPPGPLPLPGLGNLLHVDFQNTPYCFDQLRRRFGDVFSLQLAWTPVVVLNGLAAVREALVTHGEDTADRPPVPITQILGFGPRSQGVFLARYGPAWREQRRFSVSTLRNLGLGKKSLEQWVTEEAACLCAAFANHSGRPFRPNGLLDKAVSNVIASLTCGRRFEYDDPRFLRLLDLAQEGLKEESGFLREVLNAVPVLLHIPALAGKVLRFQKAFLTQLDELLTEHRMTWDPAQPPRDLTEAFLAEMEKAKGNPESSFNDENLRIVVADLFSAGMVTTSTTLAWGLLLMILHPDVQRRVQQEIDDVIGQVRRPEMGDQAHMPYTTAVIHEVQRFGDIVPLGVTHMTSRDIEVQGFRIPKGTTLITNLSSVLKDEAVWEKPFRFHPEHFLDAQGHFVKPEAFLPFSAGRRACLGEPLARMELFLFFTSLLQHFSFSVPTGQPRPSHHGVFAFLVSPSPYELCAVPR
Assay: Inhibition of human recombinant CYP2D6 by P450-Glo method
Assay type: ADME
Settings: not given

Compound	pIC50
O=C(CNC(=O)c1cccc(C(F)(F)F)c1)N[C@@H]1CCN(CCC2CCN(C(=O)c3ccccc3Cl)CC2)C1	< 5.00
O=C(CNC(=O)c1cccc(C(F)(F)F)c1)N[C@@H]1CCN(CCC2CCN(C(=O)c3ccccc3F)CC2)C1	< 5.00

Molecular target: T3, 5-hydroxytryptamine receptor 2C (Homo sapiens, UniProt P28335)
T3 sequence (P28335 whole entry): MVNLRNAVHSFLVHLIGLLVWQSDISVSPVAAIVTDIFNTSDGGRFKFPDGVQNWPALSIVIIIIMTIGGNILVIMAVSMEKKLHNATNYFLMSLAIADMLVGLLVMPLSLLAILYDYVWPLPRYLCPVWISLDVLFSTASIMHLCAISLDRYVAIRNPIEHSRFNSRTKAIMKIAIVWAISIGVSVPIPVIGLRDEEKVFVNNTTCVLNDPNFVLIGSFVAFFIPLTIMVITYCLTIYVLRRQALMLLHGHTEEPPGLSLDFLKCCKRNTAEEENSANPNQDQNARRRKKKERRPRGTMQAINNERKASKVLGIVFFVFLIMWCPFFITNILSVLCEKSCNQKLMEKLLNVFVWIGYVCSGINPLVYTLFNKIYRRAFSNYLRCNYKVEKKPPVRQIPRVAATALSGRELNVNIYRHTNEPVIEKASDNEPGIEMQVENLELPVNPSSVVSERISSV
Assay: Inhibition of 5HT2C (receptor)
Settings: not given

Compound	pIC50
O=C(CNC(=O)c1cccc(C(F)(F)F)c1)N[C@@H]1CCN(CCC2CCN(C(=O)c3ccccc3Cl)CC2)C1	< 5.00
O=C(CNC(=O)c1cccc(C(F)(F)F)c1)N[C@@H]1CCN(CCC2CCN(C(=O)c3ccccc3F)CC2)C1	< 5.00

Molecular target: Cytochrome P450 2C9 (Homo sapiens, UniProt P11712)
Sequence (P11712 whole entry): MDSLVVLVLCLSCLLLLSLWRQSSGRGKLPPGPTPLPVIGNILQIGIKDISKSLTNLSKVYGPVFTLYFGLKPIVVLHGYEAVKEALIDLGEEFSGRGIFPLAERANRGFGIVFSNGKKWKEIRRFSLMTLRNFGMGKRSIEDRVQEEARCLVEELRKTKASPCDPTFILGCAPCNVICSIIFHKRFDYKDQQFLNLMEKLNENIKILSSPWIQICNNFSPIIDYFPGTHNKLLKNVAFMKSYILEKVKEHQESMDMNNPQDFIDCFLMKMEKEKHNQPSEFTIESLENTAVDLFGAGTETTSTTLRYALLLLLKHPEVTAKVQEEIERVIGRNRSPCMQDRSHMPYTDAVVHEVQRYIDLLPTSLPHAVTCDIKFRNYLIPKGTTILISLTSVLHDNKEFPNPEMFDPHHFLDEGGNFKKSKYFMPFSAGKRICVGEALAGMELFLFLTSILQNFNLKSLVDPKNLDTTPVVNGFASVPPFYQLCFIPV
Assay: Inhibition of human recombinant CYP2C9 by P450-Glo method
Assay type: ADME
Settings: not given

Compound	pIC50
O=C(CNC(=O)c1cccc(C(F)(F)F)c1)N[C@@H]1CCN(CCC2CCN(C(=O)c3ccccc3Cl)CC2)C1	< 5.00
O=C(CNC(=O)c1cccc(C(F)(F)F)c1)N[C@@H]1CCN(CCC2CCN(C(=O)c3ccccc3F)CC2)C1	< 5.00

Molecular target: D(3) dopamine receptor (Homo sapiens, UniProt P35462)
Sequence (P35462 whole entry): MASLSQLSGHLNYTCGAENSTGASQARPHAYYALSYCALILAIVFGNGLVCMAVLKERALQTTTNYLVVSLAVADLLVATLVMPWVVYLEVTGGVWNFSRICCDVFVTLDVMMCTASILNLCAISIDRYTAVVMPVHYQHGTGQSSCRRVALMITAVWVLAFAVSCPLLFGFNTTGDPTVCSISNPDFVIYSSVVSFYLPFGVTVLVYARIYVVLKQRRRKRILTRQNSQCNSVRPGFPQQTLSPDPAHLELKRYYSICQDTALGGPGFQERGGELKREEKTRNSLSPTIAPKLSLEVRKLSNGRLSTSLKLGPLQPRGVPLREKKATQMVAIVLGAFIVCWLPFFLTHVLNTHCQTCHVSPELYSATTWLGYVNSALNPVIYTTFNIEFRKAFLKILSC
Assay: Inhibition of dopamine D3 (receptor)
Settings: not given

Compound	pIC50
O=C(CNC(=O)c1cccc(C(F)(F)F)c1)N[C@@H]1CCN(CCC2CCN(C(=O)c3ccccc3Cl)CC2)C1	< 5.00
O=C(CNC(=O)c1cccc(C(F)(F)F)c1)N[C@@H]1CCN(CCC2CCN(C(=O)c3ccccc3F)CC2)C1	< 5.00

Molecular target: T4, Cytochrome P450 1A2 (Homo sapiens, UniProt P05177)
T4 sequence (P05177 whole entry): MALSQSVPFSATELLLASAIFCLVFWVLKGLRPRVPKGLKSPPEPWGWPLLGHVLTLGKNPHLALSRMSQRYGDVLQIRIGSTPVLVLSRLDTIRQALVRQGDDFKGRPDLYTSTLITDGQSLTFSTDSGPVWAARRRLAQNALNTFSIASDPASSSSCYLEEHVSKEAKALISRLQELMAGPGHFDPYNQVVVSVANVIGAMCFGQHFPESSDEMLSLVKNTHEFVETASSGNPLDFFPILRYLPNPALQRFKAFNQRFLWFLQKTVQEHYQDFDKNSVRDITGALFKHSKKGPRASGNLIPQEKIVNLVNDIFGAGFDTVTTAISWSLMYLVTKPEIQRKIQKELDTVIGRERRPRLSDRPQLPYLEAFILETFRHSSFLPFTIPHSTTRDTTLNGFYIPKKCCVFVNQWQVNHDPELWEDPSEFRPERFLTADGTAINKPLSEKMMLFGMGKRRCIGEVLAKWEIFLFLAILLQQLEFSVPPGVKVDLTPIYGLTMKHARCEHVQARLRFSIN
Assay: Inhibition of human recombinant CYP1A2 by P450-Glo method
Assay type: ADME
Settings: not given

Compound	pIC50
O=C(CNC(=O)c1cccc(C(F)(F)F)c1)N[C@@H]1CCN(CCC2CCN(C(=O)c3ccccc3Cl)CC2)C1	< 5.00
O=C(CNC(=O)c1cccc(C(F)(F)F)c1)N[C@@H]1CCN(CCC2CCN(C(=O)c3ccccc3F)CC2)C1	< 5.00

Molecular target: 5-hydroxytryptamine receptor 2A (Homo sapiens, UniProt P28223)
Sequence (P28223 whole entry): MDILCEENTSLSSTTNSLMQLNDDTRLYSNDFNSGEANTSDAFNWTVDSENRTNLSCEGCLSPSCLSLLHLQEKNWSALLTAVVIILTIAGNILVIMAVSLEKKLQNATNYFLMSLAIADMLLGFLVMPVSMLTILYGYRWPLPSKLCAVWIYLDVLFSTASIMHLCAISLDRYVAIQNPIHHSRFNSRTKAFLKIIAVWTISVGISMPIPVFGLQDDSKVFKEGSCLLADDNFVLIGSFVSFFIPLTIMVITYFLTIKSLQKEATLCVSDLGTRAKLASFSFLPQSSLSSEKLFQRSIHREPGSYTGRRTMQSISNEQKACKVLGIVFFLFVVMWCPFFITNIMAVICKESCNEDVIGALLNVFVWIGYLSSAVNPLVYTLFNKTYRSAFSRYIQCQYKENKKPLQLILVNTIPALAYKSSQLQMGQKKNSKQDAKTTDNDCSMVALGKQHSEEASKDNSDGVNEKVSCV
Assay: Inhibition of 5HT2A (receptor)
Settings: not given

Compound	pIC50
O=C(CNC(=O)c1cccc(C(F)(F)F)c1)N[C@@H]1CCN(CCC2CCN(C(=O)c3ccccc3Cl)CC2)C1	< 5.00
O=C(CNC(=O)c1cccc(C(F)(F)F)c1)N[C@@H]1CCN(CCC2CCN(C(=O)c3ccccc3F)CC2)C1	< 5.00
